Where two headings read alike, the source gives them in different places. Marks after values point to notes of the source that are not given here.
Tests used:
[1] = tested on: influenza virus A/California/07/2009swl (H1N1); type: in vivo, mice; conditions: 10th day after infection; for Survival, % 10LD50: female Balb/c mice, intragastric
[2] = tested on: influenza virus A/California/07/2009swl (H1N1); type: in vivo, mice; conditions: 10th day after infection; for Survival, % 10LD50: female Balb/c mice, intragastric; remark: listed apart in the source
influenza = assay: open-label comparative controlled clinical study versus Tamiflu in influenza; type: in vivo, human
[3] = Morning Day 1, 37.0° C. and lower

CCOC(=O)C1=C[C@@H](OC(CC)CC)[C@H](NC(C)=O)[C@@H](N)C1 [Oseltamivir]
Difference between % of survival in the group that received medication and % of survival in the group that received distilled water ([1]; stage 1): +60% | Survival, % 10LD50 ([1]; stage 1): 80* % | Difference between % of survival in the group that received medication and % of survival in the group that received distilled water ([1]; stage 2): +65% | Survival, % 10LD50 ([1]; stage 2): 70* % | Difference between % of survival in the group that received medication and % of survival in the group that received distilled water ([2]; stage 1): +60% | Survival, % 10LD50 ([2]; stage 1): 80* % | Difference between % of survival in the group that received medication and % of survival in the group that received distilled water ([2]; stage 2): +65% | Survival, % 10LD50 ([2]; stage 2): 70* % | Mean values of body temperature, M ± SD (influenza; Evening Day 2): 36.9 ± 0.53 °C | Proportion of patients with normal temperature, % (influenza; Evening Day 2): 45.5% | The number of patients with normal temperature (influenza; Evening Day 2): 5 | Mean values of body temperature, M ± SD (influenza; Evening, Day 1): 37.3 ± 0.71 °C | Proportion of patients with normal temperature, % (influenza; Evening, Day 1): 9.1% | The number of patients with normal temperature (influenza; Evening, Day 1): 1 | Mean values of body temperature, M ± SD (influenza; Evening, Day 3): 36.7 ± 0.46 °C | Proportion of patients with normal temperature, % (influenza; Evening, Day 3): 54.5% | The number of patients with normal temperature (influenza; Evening, Day 3): 6 | Mean values of body temperature, M ± SD (influenza; Evening, Day 4): 36.5 ± 0.38 °C | Proportion of patients with normal temperature, % (influenza; Evening, Day 4): 80.0% | The number of patients with normal temperature (influenza; Evening, Day 4): 8 | Mean values of body temperature, M ± SD (influenza; Evening, Day 5): 36.5 ± 0.21 °C | Proportion of patients with normal temperature, % (influenza; Evening, Day 5): 90.0% | The number of patients with normal temperature (influenza; Evening, Day 5): 9 | Mean values of body temperature, M ± SD (influenza; Evening, Day 6): 36.3 ± 0.19 °C | Proportion of patients with normal temperature, % (influenza; Evening, Day 6): 100.0% | The number of patients with normal temperature (influenza; Evening, Day 6): 7 | Mean values of body temperature, M ± SD (influenza; Evening, Day 7): 36.6 ± 0.12 °C | Proportion of patients with normal temperature, % (influenza; Evening, Day 7): 100.0% | The number of patients with normal temperature (influenza; Evening, Day 7): 4 | Mean values of body temperature, M ± SD (influenza; Morning Day 1): 38.1 ± 0.82 °C | Proportion of patients with normal temperature, % (influenza; [3]): 0% | The number of patients with normal temperature (influenza; [3]): 0 | Mean values of body temperature, M ± SD (influenza; Morning Day 2): 37.3 ± 0.72 °C | Proportion of patients with normal temperature, % (influenza; Morning Day 2): 36.4% | The number of patients with normal temperature (influenza; Morning Day 2): 4 | Mean values of body temperature, M ± SD (influenza; Morning Day 3): 36.9 ± 0.47 °C | Proportion of patients with normal temperature, % (influenza; Morning Day 3): 45.5% | The number of patients with normal temperature (influenza; Morning Day 3): 5 | Mean values of body temperature, M ± SD (influenza; Morning Day 4): 36.8 ± 0.37 °C | Proportion of patients with normal temperature, % (influenza; Morning Day 4): 90.9% | The number of patients with normal temperature (influenza; Morning Day 4): 10 | Mean values of body temperature, M ± SD (influenza; Morning Day 5): 36.7 ± 0.25 °C | Proportion of patients with normal temperature, % (influenza; Morning Day 5): 90.0% | The number of patients with normal temperature (influenza; Morning Day 5): 9 | Mean values of body temperature, M ± SD (influenza; Morning Day 6): 36.6 ± 0.21 °C | Proportion of patients with normal temperature, % (influenza; Morning Day 6): 100.0% | The number of patients with normal temperature (influenza; Morning Day 6): 9 | Mean values of body temperature, M ± SD (influenza; Morning Day 7): 36.5 ± 0.10 °C | Proportion of patients with normal temperature, % (influenza; Morning Day 7): 100.0% | The number of patients with normal temperature (influenza; Morning Day 7): 5 | Mean values of body temperature, M ± SD (influenza; Morning Day 8): 36.5 ± 0.14 °C | Proportion of patients with normal temperature, % (influenza; Morning Day 8): 100.0% | The number of patients with normal temperature (influenza; Morning Day 8): 3 | mean number of antipyretic intakes (influenza; by the morning of Day 4 of the therapy): 7.4±0.90 | Bacterial complications, Otitis, % (influenza; influenza): 0/0% | Bacterial complications, Pneumonia, % (influenza; influenza): 9.1% | Bacterial complications, Total, % (influenza; influenza): 27.2% | Bacterial complications, Tracheitis, % (influenza; influenza): 18.2%
